Source: patent US20080118940A1, “PROTEASOMAL PEPTIDASE ACTIVITY AND THE USE THEREOF IN CLINICAL APPLICATIONS” (priority 2006, published 2008)

Assays:
[1] = system: proteasomal chymotrypsin-like activity (Ch-L); assay: Proteasome inhibitor effect on chymotrypsin-like (Ch-L) peptidase activity, fluorogenic Suc-LLVY-AMC assay; type: biochemical, human; settings: purified proteasome, plasma and white blood cell lysate; YU-101 0.4 μg/mL; substrate 200 μM
Method: (§1) Ch-L, Tr-L, and Cas-L activities in peripheral blood plasma from patients were measured as follows. Frozen patient plasma samples were processed by thawing at room temperature and mixed thoroughly. 45 μL of thawed plasma was pipetted into a microfuge tube (Tube 1), and 22.5 μL plasma was pipetted into another microfuge tube (Tube 2). 5 μL 10% SDS was pipetted into Tube 1, and 2.5 μL 10% tween 20 was pipetted into Tube 2. Each tube was mixed and incubated at room temperature for 15 minutes resulting in processed samples. All buffers, substrate stock solutions, controls, and microwell plates were equilibrated to room temperature. The proteasome control was placed on ice immediately after thawing. […] Cleavage of substrate was detected using the SPECTRAmax GEMINI EM instrument with SoftMax Pro data Collection software. […] Fluorescence excitation and emission wavelengths were 380 nm and 460 nm, respectively. Samples were read at 1 minute intervals over 30 minutes. Green fluorescence was detected in columns 1, 4, 7, and 10, representing Ch-L activity; blue fluorescence was detected in columns 3, 6, 9, and 12, representing Cas-L activity; and yellow fluorescence was detected in columns 2, 5, 8, and 11, representing Tr-L activity. […]

[2] = system: proteasomal trypsin-like activity (Tr-L); assay: Proteasome inhibitor effect on trypsin-like (Tr-L) peptidase activity, fluorogenic BZ-VGR-AMC assay; type: biochemical, human; settings: purified proteasome, plasma and white blood cell lysate; YU-101 0.4 μg/mL; substrate 200 μM
Method: as §1

[3] = target: T1, proteasomal caspase-like activity (Cas-L) (Homo sapiens, UniProt P28072); assay: Proteasome inhibitor effect on caspase-like (Cas-L) peptidase activity, fluorogenic Z-LLE-AMC assay; type: biochemical; settings: purified proteasome, plasma and white blood cell lysate; YU-101 0.4 μg/mL; substrate 200 μM
T1 construct: in samples of purified proteasome, plasma, and white blood cell lysate; from tissue; host or cells: purified proteasome; plasma; white blood cell lysate (normal individuals)
T1 sequence (P28072 1-239): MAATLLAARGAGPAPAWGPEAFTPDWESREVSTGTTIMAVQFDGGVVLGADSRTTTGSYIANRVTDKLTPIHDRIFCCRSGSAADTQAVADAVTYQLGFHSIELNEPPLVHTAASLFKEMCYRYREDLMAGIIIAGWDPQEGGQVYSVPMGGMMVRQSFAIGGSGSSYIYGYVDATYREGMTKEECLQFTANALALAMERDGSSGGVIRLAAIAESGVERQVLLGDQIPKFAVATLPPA
Method: as §1

[4] = system: proteasome Ch-L activity in plasma from an AML patient; assay: Dose response of Ch-L activity in plasma from an AML patient; type: biochemical, human; settings: for % Inhibition / Activity: AML patient plasma
Method: (§2) Ch-L, Tr-L, and Cas-L activities in peripheral blood plasma from patients were measured as follows. Frozen patient plasma samples were processed by thawing at room temperature and mixed thoroughly. 45 μL of thawed plasma was pipetted into a microfuge tube (Tube 1), and 22.5 μL plasma was pipetted into another microfuge tube (Tube 2). 5 μL 10% SDS was pipetted into Tube 1, and 2.5 μL 10% tween 20 was pipetted into Tube 2. Each tube was mixed and incubated at room temperature for 15 minutes resulting in processed samples. All buffers, substrate stock solutions, controls, and microwell plates were equilibrated to room temperature. The proteasome control was placed on ice immediately after thawing. Substrate working solutions (1 mM) were made by adding 950 μL buffer A (1×HEPES/0.05% SDS) to 50 μL stock solution of Ch-L and Cas-L substrates (20 mM Suc-LLVY-AMC and 20 mM Z-LLE-AMC) and mixed. 950 μL buffer B (1×HEPES/0.05% Tween 20) was added to 50 μL stock solution of Tr-L substrate (20 mM BZ-VGR-AMC) and mixed. Working solutions were protected from light. A microwell plate (containing 12 columns of wells) was set-up according to a plate map as follows: 30 μL buffer A was pipetted into the wells of columns 1, 4, 7, and 10 (to measure Ch-L activity) and 3, 6, 9, and 12 (to measure Cas-L activity). 30 μL buffer B was pipetted into the wells of columns 2, 5, 8, and 11 (to measure Tr-L). 10 μL buffer A or B served as blank controls. 10 μL of processed samples were pipetted into duplicate wells for each substrate (i.e., 6 wells per processed plasma sample), to the designated wells according to the plate map. 10 μL of substrate was added to the designated wells according to the plate map. The final concentration of substrate was 200 μM. Cleavage of substrate was detected using the SPECTRAmax GEMINI EM instrument with SoftMax Pro data Collection software. The instrument incubation chamber temperature was set to 37° C. Fluorescence excitation and emission wavelengths were 380 nm and 460 nm, respectively. Samples were read at 1 minute intervals over 30 minutes. Green fluorescence was detected in columns 1, 4, 7, and 10, representing Ch-L activity; blue fluorescence was detected in columns 3, 6, 9, and 12, representing Cas-L activity; and yellow fluorescence was detected in columns 2, 5, 8, and 11, representing Tr-L activity.
A dose response study was conducted to determine the effect of concentration of YU-101 on Ch-L activity as assayed in plasma from an AML patient. YU-101 (200 ng/μL) was serially diluted 1:4 in HEPES buffer to produce solutions having concentrations of 0.78, 3.125, 12.5, 50, and 200 ng/μL for dose response experiments. 70 μL of plasma from an AML patient was combined with 1 μL inhibitor solution and incubated at room temperature for 15 minutes. Ch-L activity was determined as in Example 1.

[5] = system: proteasome Ch-L activity in whole blood cell lysate from a normal individual; assay: Dose response of Ch-L activity in whole blood lysate from a normal individual; type: biochemical, human; set-up: Activity: unit not given beside the values; settings: for % Inhibition / Activity: whole blood, normal individual
Method: as §2
A dose response study was conducted to determine the effect of concentration of YU-101 on Ch-L activity in a whole blood lysate from a normal individual. YU-101 (200 ng/μL) was serially diluted 1:2 in HEPES buffer to produce solutions having concentrations of 6.25, 12.5, 25, 50, and 100 ng/μL for dose response experiments. 70 μL of […] was combined with 1 μL inhibitor solution and incubated at room temperature for 15 minutes. Ch-L activity was determined as in Example 1.

[6] = target: T2, Pure human 20S proteasome (Homo sapiens, UniProt P28074); assay: Specificity of proteasomal enzymatic assay: Ch-L activity of purified 20S proteasome; type: biochemical; settings: Suc-LLVY-AMC
T2 construct: purchased Biomol International PW8720-0050

[7] = target: T3, human pancreatic α-chymotrypsin (Homo sapiens, UniProt P17538); assay: Specificity of proteasomal enzymatic assay: pancreatic chymotrypsin activity; type: biochemical; settings: Suc-LLVY-AMC
T3 construct: purchased Sigma C-8946; host or cells: isolated from human pancreas
T3 sequence (P17538 34-164 limits assumed, other chains not shown): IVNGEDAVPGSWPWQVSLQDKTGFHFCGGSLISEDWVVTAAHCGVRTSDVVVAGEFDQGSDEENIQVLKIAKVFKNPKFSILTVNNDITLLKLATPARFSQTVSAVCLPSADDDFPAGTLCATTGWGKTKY
T3 sequence (P17538 167-263 limits assumed, other chains not shown): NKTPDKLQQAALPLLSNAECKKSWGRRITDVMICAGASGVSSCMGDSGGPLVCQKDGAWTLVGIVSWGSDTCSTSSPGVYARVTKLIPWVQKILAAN
Method: as §1

Question: Which results are given for CC(=O)NC(CCc1ccccc1)C(=O)NC(CC(C)C)C(=O)NC(Cc1ccccc1)C(=O)NC(CC(C)C)C(=O)C1(C)CO1 (centres unmarked) [YU-101]?
Answer: inhibition of chymotrypsin-L activity [1]: strong inhibitor; inhibition of trypsin-L activity [2]: weaker inhibitor; inhibition of caspase-L activity [3]: weaker inhibitor; % Inhibition ([4]; approx. YU-101 0.00156 ng/μL): 0.00%; Activity ([4]; approx. YU-101 0.00156 ng/μL): 233781; % Inhibition ([4]; approx. YU-101 0.00625 ng/μL): 8.98%; Activity ([4]; approx. YU-101 0.00625 ng/μL): 212786; % Inhibition ([4]; approx. YU-101 0.025 ng/μL): 38.41%; Activity ([4]; approx. YU-101 0.025 ng/μL): 143991; % Inhibition ([4]; approx. YU-101 0.1 ng/μL): 62.54%; Activity ([4]; approx. YU-101 0.1 ng/μL): 87573; % Inhibition ([4]; approx. YU-101 0.4 ng/μL): 69.56%; Activity ([4]; approx. YU-101 0.4 ng/μL): 71162; inhibition of Ch-L activity, dose dependence ([4]; plasma of an AML patient): dose-dependent; inhibition of Ch-L activity, dose dependence ([5]; whole blood cell lysate from a normal individual): dose-dependent; % Inhibition ([5]; approx. YU-101 0.0125 ng/μL): 3.2%; Activity ([5]; approx. YU-101 0.0125 ng/μL): 92002; % Inhibition ([5]; approx. YU-101 0.025 ng/μL): 24.0%; Activity ([5]; approx. YU-101 0.025 ng/μL): 72252; % Inhibition ([5]; approx. YU-101 0.05 ng/μL): 38.4%; Activity ([5]; approx. YU-101 0.05 ng/μL): 58544; % Inhibition ([5]; approx. YU-101 0.1 ng/μL): 82.0%; Activity ([5]; approx. YU-101 0.1 ng/μL): 17070; % Inhibition ([5]; approx. YU-101 0.2 ng/μL): 92.6%; Activity ([5]; approx. YU-101 0.2 ng/μL): 7024; Vmax Ch-L (fluorescence) ([6]; purified 20S proteasome + YU-101, final 4 ng/μL): No activity; Vmax Ch-L (fluorescence) ([7]; pancreatic α-chymotrypsin + YU-101, final 4 ng/μL): No activity

B1: α1-anti-chymotrypsin: pancreatic chymotrypsin inhibitor (Sigma, catalog #A9285) (protein, UniProt P01011 24-423, looked up)
Alpha-1-antichymotrypsin: HPNSPLDEENLTQENQDRGTHVDLGLASANVDFAFSLYKQLVLKAPDKNVIFSPLSISTALAFLSLGAHNTTLTEILKGLKFNLTETSEAEIHQSFQHLLRTLNQSSDELQLSMGNAMFVKEQLSLLDRFTEDAKRLYGSEAFATDFQDSAAAKKLINDYVKNGTRGKITDLIKDLDSQTMMVLVNYIFFKAKWEMPFDPQDTHQSRFYLSKKKWVMVPMMSLHHLTIPYFRDEELSCTVVELKYTGNASALFILPDQDKMEEVEAMLLPETLKRWRDSLEFREIGELYLPKFSISRDYNLNDILLQLGIEEAFTSKADLSGITGARNLAVSQVVHKAVLDVFEEGTEASAATAVKITLLSALVETRTIVRFNRPFLMIIVPTDTQNIFFMSKVTNPKQA
Question: With B1 as the molecule, how does the “Vmax Ch-L (fluorescence)” value ([6]; purified 20S proteasome + α1-anti-chymotrypsin, final 40 ng/μL) read?
Answer: 121,813

Question: What about the “Vmax Ch-L (fluorescence)” value ([7]; pancreatic α-chymotrypsin + α1-anti-chymotrypsin, final 40 ng/μL) of the same molecule?
Answer: No activity
